Laboratory results taken from PubChem BioAssay (NCI).
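Five concentrations, 48 hours, 96-well plates. Definition used: TGI = concentration required for complete inhibition of growth.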

How the values were obtained:
Test in all cases: NCI-60 cell line screen, 48 h
OVCAR-3 ovarian = tested on: OVCAR-3 ovarian
HCT-15 colon = tested on: HCT-15 colon
OVCAR-4 ovarian = tested on: OVCAR-4 ovarian
MDA-N = tested on: MDA-N
SF-539 CNS = tested on: SF-539 CNS
SK-MEL-28 melanoma = tested on: SK-MEL-28 melanoma
SNB-75 CNS = tested on: SNB-75 CNS
SK-MEL-5 melanoma = tested on: SK-MEL-5 melanoma
DU-145 prostate = tested on: DU-145 prostate
A549 NSCLC = tested on: A549 NSCLC
HT29 colon = tested on: HT29 colon
MDA-MB-435 = tested on: MDA-MB-435
HCT-116 colon = tested on: HCT-116 colon
CCRF-CEM leukemia = tested on: CCRF-CEM leukemia
HCC-2998 colon = tested on: HCC-2998 colon
MDA-MB-231 breast = tested on: MDA-MB-231 breast
HOP-62 NSCLC = tested on: HOP-62 NSCLC
SK-MEL-2 melanoma = tested on: SK-MEL-2 melanoma
NCI-H226 lung = tested on: NCI-H226 lung
DLD-1 colon = tested on: DLD-1 colon
BT-549 breast = tested on: BT-549 breast
COLO 205 colon = tested on: COLO 205 colon
TK-10 renal = tested on: TK-10 renal
NCI-H522 lung = tested on: NCI-H522 lung
SNB-78 CNS = tested on: SNB-78 CNS
KM12 colon = tested on: KM12 colon
HOP-18 NSCLC = tested on: HOP-18 NSCLC
HL-60(TB) leukemia = tested on: HL-60(TB) leukemia
DMS 273 small cell lung = tested on: DMS 273 small cell lung
UACC-257 melanoma = tested on: UACC-257 melanoma
MALME-3M melanoma = tested on: MALME-3M melanoma
T-47D breast = tested on: T-47D breast
MOLT-4 leukemia = tested on: MOLT-4 leukemia
SK-OV-3 ovarian = tested on: SK-OV-3 ovarian
XF 498 CNS = tested on: XF 498 CNS
PC-3 prostate = tested on: PC-3 prostate
M19-MEL melanoma = tested on: M19-MEL melanoma
UACC-62 melanoma = tested on: UACC-62 melanoma
SF-268 CNS = tested on: SF-268 CNS
LOX IMVI melanoma = tested on: LOX IMVI melanoma
NCI-H460 lung = tested on: NCI-H460 lung
A498 renal = tested on: A498 renal
OVCAR-5 ovarian = tested on: OVCAR-5 ovarian
SW-620 colon = tested on: SW-620 colon
EKVX NSCLC = tested on: EKVX NSCLC
LXFL 529 NSCLC = tested on: LXFL 529 NSCLC
SN12C renal = tested on: SN12C renal
786-0 renal = tested on: 786-0 renal
SF-295 CNS = tested on: SF-295 CNS
HOP-92 NSCLC = tested on: HOP-92 NSCLC
ACHN renal = tested on: ACHN renal
SR leukemia = tested on: SR leukemia
M14 melanoma = tested on: M14 melanoma
RXF 393 renal = tested on: RXF 393 renal
NCI/ADR-RES ovarian = tested on: NCI/ADR-RES ovarian
OVCAR-8 ovarian = tested on: OVCAR-8 ovarian
U251 CNS = tested on: U251 CNS
K-562 leukemia = tested on: K-562 leukemia
IGROV1 ovarian = tested on: IGROV1 ovarian
SNB-19 CNS = tested on: SNB-19 CNS
UO-31 renal = tested on: UO-31 renal
KM20L2 colon = tested on: KM20L2 colon
RPMI-8226 leukemia = tested on: RPMI-8226 leukemia
CAKI-1 renal = tested on: CAKI-1 renal
HS 578T breast = tested on: HS 578T breast
NCI-H23 lung = tested on: NCI-H23 lung

Molecule O=c1[nH]c2ccccc2nc1CBr has a TGI (OVCAR-3 ovarian) of 4.22 µM, a TGI (HCT-15 colon) of 26.2 µM and a TGI (OVCAR-4 ovarian) of 13.4 µM. For the same molecule, the TGI (MDA-N) was 24.6 µM, the TGI (SF-539 CNS) was 21.4 µM and the TGI (SK-MEL-28 melanoma) was 25.6 µM. The TGI (SNB-75 CNS) was 34.2 µM, the TGI (SK-MEL-5 melanoma) was 23.2 µM and the TGI (DU-145 prostate) was 37.1 µM. It also gave a TGI (A549 NSCLC) of 39.2 µM, a TGI (HT29 colon) of 22.8 µM and a TGI (MDA-MB-435) of 25.5 µM. For the same molecule, the TGI (HCT-116 colon) was 21.3 µM, the TGI (CCRF-CEM leukemia) was 1.45 µM and the TGI (HCC-2998 colon) was 56.2 µM. It also gave a TGI (MDA-MB-231 breast) of 23.3 µM, a TGI (HOP-62 NSCLC) of 45 µM and a TGI (SK-MEL-2 melanoma) of 22.6 µM. The TGI (NCI-H226 lung) was 37.3 µM, the TGI (DLD-1 colon) was 22.8 µM and the TGI (BT-549 breast) was 21.4 µM. The TGI (COLO 205 colon) was 17.6 µM, the TGI (TK-10 renal) was 20.7 µM and the TGI (NCI-H522 lung) was 1.49 µM. For the same molecule, the TGI (SNB-78 CNS) was 65.6 µM, the TGI (KM12 colon) was 10.1 µM and the TGI (HOP-18 NSCLC) was 19 µM. It also gave a TGI (HL-60(TB) leukemia) of 0.721 µM, a TGI (DMS 273 small cell lung) of 10.4 µM and a TGI (UACC-257 melanoma) of 27.3 µM. It also gave a TGI (MALME-3M melanoma) of 8.66 µM, a TGI (T-47D breast) of 31.1 µM and a TGI (MOLT-4 leukemia) of 4.35 µM. For the same molecule, the TGI (SK-OV-3 ovarian) was 53.3 µM, the TGI (XF 498 CNS) was 3.51 µM and the TGI (PC-3 prostate) was 25.1 µM. For the same molecule, the TGI (M19-MEL melanoma) was 22.8 µM, the TGI (UACC-62 melanoma) was 21.3 µM and the TGI (SF-268 CNS) was 31.1 µM. It also gave a TGI (LOX IMVI melanoma) of 3.24 µM, a TGI (NCI-H460 lung) of 29 µM and a TGI (A498 renal) of over 53.1 µM. It also gave a TGI (OVCAR-5 ovarian) of 33.7 µM, a TGI (SW-620 colon) of 17.5 µM and a TGI (EKVX NSCLC) of 9.87 µM. It also gave a TGI (LXFL 529 NSCLC) of 3.21 µM, a TGI (SN12C renal) of 24.5 µM and a TGI (786-0 renal) of 9.11 µM. The TGI (SF-295 CNS) was 43.2 µM, the TGI (HOP-92 NSCLC) was 11.8 µM and the TGI (ACHN renal) was 27 µM. For the same molecule, the TGI (SR leukemia) was 2.44 µM, the TGI (M14 melanoma) was 22.8 µM and the TGI (RXF 393 renal) was 7.72 µM. The TGI (NCI/ADR-RES ovarian) was 51.1 µM, the TGI (OVCAR-8 ovarian) was 34.7 µM and the TGI (U251 CNS) was 23.8 µM. It also gave a TGI (K-562 leukemia) of 9.5 µM, a TGI (IGROV1 ovarian) of 11.3 µM and a TGI (SNB-19 CNS) of 52 µM. The TGI (UO-31 renal) was 11.2 µM, the TGI (KM20L2 colon) was 32.9 µM and the TGI (RPMI-8226 leukemia) was 9.97 µM. For the same molecule, the TGI (CAKI-1 renal) was 19.6 µM, the TGI (HS 578T breast) was 42 µM and the TGI (NCI-H23 lung) was 29.1 µM.
